Data taken from ChEMBL document CHEMBL3044722, “Potent enantioselective auxin: indole-3-succinic acid” (2002).

Key:
Type in all cases: functional
Fuchsia [1] = assay: Induction of root growth in swingtime Fuchsia hybrida at 10^-7 M after 7 to 34 days relative to indole-3-butyric acid
Fuchsia [2] = assay: Induction of root growth in swingtime Fuchsia hybrida at 10^-8 M after 7 to 34 days relative to indole-3-butyric acid
Fuchsia [3] = assay: Induction of root growth in varigated Fuchsia hybrida at 10^-8 M after 7 to 34 days relative to indole-3-butyric acid
Fuchsia [4] = assay: Induction of root growth in varigated Fuchsia hybrida at 10^-7 M after 7 to 34 days relative to indole-3-butyric acid

SMILES	Ratio (Fuchsia [1])	Ratio (Fuchsia [2])	Ratio (Fuchsia [3])	Ratio (Fuchsia [4])
O=C(O)C[C@H](C(=O)O)c1c[nH]c2ccccc12	5.7	4.8	4.6	3.8
O=C(O)C[C@@H](C(=O)O)c1c[nH]c2ccccc12	5.6	7.1	4.4	0.7
O=C(O)CC(C(=O)O)c1c[nH]c2ccccc12 (racemic)	7	–	–	–
O=C(O)Cc1c[nH]c2ccccc12 [INDOLE-3-ACETIC ACID]	0	–	–	0
